From the NIST ThermoML archive (doi:10.1021/je700492k) come the findings set out here.

Numbers after ± are expanded uncertainties.

For this data set the following is noted: 101.33 kPa, Liquid, Pycnometric method.

In general, mass density refers to the mass of a sample divided by its volume.

Take `CC(=O)CC(C)=O` [2,4-pentanedione]: the mass density (298.15 K) was found to be 972.1 ± 0.9 kg/m3, the mass density (313.15 K) stood at 954 ± 0.9 kg/m3 and the mass density (328.15 K) is given as 939.3 ± 0.8 kg/m3.
